In assay [1] the target is T1, HiBiT-BRM (Homo sapiens, UniProt P51531).
T1 construct: expressed in transfected cells
Kind of assay: HiBiT-BRM cell-based degradation assay (Nano-Glo HiBiT Lytic Detection). The following applies: HeLa cells expressing HiBiT-BRM, 24 h; for DC50: read-out: BRM HiBit Degradation IC50. The gist of the method: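 Luminescence from HiBiT–LgBiT complementation in lysates of a stable HiBiT-BRM HeLa line measured after 24 h compound exposure. Degradation expressed as percent relative to DMSO-treated cells and cells given 2 μM of a known BRM/BRG1 degrader.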
For orientation: HiBiT is a short tag that completes a luciferase, so light tracks the accessible tagged protein.

Assay [2] has as its target T2, HiBit-BRG1 (Homo sapiens, UniProt P51532).
T2 construct: expressed in transfected cells
The assay can be described thus: HiBit-BRG1 cell-based degradation assay (Nano-Glo HiBiT Lytic Detection). The following applies: HeLa cells expressing HiBit-BRG1 and LgBit, 24 h; for DC50: read-out: BRG1 HiBit Degradation IC50; for Dmax: read-out: BRG1 HiBit Degradation Maximum (%). The gist of the method:
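Percent degradation derived from lytic HiBiT signal, normalized to DMSO-treated cells and to cells given 2 μM of a known BRM/BRG1 degrader. The HeLa line stably expressed HiBit-BRG1 and LgBit; treatment lasted 24 h at 5000 cells per well.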

This note sets out measurements from US20230150974A1 (Foghorn Therapeutics Inc., priority 2020, published 2023).

Some results are limits rather than exact numbers.

T1 sequence (P51531 whole entry): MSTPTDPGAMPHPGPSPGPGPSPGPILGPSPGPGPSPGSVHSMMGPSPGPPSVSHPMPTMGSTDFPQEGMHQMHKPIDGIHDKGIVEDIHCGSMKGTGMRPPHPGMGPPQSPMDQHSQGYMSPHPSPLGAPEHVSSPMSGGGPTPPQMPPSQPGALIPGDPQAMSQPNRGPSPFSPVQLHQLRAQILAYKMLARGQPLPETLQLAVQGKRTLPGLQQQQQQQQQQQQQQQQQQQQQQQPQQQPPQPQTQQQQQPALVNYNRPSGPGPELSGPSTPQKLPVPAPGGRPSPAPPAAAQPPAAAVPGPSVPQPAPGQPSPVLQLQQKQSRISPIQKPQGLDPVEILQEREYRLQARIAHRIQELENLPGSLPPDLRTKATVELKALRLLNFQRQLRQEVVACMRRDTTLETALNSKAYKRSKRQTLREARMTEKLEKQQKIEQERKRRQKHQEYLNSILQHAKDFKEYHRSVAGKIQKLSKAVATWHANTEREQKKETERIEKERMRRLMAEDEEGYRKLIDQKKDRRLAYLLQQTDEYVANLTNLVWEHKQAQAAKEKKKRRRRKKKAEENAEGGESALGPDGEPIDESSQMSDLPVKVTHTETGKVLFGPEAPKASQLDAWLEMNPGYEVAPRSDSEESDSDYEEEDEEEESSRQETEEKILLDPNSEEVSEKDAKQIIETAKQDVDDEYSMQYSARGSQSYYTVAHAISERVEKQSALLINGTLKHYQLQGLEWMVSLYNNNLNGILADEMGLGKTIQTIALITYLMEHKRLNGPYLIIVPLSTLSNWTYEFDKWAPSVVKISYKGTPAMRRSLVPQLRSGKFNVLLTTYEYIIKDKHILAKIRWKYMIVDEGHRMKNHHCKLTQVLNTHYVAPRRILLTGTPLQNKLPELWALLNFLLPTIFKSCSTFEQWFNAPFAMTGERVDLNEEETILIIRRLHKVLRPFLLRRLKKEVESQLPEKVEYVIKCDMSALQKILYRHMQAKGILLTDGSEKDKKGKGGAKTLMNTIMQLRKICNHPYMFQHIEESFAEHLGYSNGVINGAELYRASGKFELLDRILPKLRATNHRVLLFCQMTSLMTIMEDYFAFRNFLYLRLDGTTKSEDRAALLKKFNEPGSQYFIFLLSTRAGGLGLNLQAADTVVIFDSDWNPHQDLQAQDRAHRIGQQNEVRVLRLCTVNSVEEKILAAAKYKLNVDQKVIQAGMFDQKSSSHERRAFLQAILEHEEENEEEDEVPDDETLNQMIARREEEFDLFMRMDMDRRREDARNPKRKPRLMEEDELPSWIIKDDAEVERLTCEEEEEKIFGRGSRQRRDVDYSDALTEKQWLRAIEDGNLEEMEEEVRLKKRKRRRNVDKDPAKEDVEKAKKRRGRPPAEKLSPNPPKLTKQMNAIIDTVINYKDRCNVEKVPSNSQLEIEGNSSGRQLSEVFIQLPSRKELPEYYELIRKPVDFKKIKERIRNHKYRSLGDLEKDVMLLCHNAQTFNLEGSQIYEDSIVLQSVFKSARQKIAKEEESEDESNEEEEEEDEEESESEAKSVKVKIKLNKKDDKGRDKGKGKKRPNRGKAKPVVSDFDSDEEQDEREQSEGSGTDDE
T2 sequence (P51532 whole entry): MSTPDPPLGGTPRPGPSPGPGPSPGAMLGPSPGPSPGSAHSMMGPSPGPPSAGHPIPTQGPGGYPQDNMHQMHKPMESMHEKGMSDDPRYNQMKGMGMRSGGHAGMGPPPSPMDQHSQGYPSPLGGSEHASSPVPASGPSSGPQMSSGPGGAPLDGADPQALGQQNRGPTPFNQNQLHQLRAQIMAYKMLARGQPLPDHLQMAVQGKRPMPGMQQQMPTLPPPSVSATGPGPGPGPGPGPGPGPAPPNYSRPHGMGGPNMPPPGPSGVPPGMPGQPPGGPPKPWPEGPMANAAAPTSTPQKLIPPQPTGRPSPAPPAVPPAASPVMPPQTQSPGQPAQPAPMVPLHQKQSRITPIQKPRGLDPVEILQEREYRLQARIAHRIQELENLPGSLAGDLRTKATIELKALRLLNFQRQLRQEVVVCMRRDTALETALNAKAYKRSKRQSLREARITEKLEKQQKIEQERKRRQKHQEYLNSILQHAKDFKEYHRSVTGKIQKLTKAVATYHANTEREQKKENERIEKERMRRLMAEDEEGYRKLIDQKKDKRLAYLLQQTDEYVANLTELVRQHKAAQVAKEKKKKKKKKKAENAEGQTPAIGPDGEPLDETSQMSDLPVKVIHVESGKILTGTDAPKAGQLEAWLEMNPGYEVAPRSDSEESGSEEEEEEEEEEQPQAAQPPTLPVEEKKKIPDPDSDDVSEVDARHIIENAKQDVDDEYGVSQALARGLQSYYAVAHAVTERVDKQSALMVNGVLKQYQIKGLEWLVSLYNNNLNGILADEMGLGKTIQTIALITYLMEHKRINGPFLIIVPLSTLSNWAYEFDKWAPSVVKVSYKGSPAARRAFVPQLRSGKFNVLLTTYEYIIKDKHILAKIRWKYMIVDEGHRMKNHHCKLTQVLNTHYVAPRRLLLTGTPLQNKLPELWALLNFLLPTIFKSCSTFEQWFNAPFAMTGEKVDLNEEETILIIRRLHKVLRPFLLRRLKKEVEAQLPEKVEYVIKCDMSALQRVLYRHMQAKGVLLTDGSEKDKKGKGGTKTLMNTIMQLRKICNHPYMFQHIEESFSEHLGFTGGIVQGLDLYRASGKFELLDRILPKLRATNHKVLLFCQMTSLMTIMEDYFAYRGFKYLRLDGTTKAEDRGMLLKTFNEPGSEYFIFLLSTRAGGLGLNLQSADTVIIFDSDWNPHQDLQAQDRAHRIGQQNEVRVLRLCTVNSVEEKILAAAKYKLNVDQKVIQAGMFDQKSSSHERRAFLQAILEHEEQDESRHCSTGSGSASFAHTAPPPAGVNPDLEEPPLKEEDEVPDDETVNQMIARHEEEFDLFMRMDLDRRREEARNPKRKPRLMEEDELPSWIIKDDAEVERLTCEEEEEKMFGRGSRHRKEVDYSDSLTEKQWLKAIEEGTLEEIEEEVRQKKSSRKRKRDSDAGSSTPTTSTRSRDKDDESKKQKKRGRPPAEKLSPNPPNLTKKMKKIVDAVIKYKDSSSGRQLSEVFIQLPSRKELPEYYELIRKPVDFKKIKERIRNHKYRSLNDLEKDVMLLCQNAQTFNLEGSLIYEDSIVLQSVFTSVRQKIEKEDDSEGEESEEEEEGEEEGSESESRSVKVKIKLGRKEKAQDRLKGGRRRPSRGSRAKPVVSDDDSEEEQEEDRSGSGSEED

Turning to `Cc1ncsc1-c1ccc([C@H](C)NC(=O)[C@@H]2C[C@@H](O)CN2C(=O)[C@@H](c2cc(OCCN3CCC(O)(C(=O)NCc4ccc(CCOc5cc(-c6ccccc6O)nnc5N)cc4)CC3)no2)C(C)C)cc1` [Compound 206, N-[[4-(2-[[3-amino-6-(2-hydroxyphenyl)pyridazin-4-yl]oxy]ethyl)phenyl]methyl]-4-hydroxy-1-[2-([5-[(2R)-1-[(2S,4R)-4-hydroxy-2-[[(1S)-1-[4-(4-methyl-1,3-thiazol-5-yl)phenyl]ethyl]carbamoyl]pyrrolidin-1-yl]-3-methyl-1-oxobutan-2-yl]-1,2-oxazol-3-yl]oxy)ethyl]piperidine-4-carboxamide], in assay [1], the “BRM HiBit Degradation Maximum (%)” value is “A (“A” indicates maximum degradation ≥75%)” and the DC50 is greater than 10 nM. For the same compound, in assay [2], the DC50 is greater than 100 nM and the Dmax was greater than 75%.
The matching figures for `Nc1nnc(-c2ccccc2O)cc1OCCc1ccc(C(=O)NCCCCCCCCNc2cccc3c2C(=O)N(C2CCC(=O)NC2=O)C3=O)cc1` (centres unmarked) [Compound 44, 4-(2-((3-amino-6-(2-hydroxyphenyl)pyridazin-4-yl)oxy)ethyl)-N-(8-((2-(2,6-dioxopiperidin-3-yl)-1,3-dioxoisoindolin-4-yl)amino)octyl)benzamide]: “B (“B” indicates maximum degradation ≥50%)”, greater than 100 nM, greater than 1000 nM and less than 50%.
Regarding `Cc1ncsc1-c1ccc(CNC(=O)[C@@H]2C[C@@H](O)CN2C(=O)[C@@H](NC(=O)CCCCCCCCCNCc2ccc(CCNc3cc(-c4ccccc4O)nnc3N)cc2)C(C)(C)C)cc1` [Compound 139, (2S,4R)-1-((S)-2-(10-((4-(2-((3-amino-6-(2-hydroxyphenyl)pyridazin-4-yl)amino)ethyl)benzyl)amino)decanamido)-3,3-dimethylbutanoyl)-4-hydroxy-N-(4-(4-methylthiazol-5-yl)benzyl)pyrrolidine-2-carboxamide], in assay [1], the “BRM HiBit Degradation Maximum (%)” value is on record as “A (“A” indicates maximum degradation ≥75%)” and the DC50 is greater than 100 nM. Moreover, in assay [2], the DC50 was greater than 1000 nM and the Dmax is greater than 50%.
In the same order, the values of `Nc1nnc(-c2ccccc2O)cc1OCCc1ccc(C(=O)NCCCCCNc2cccc3c2C(=O)N(C2CCC(=O)NC2=O)C3=O)cc1` (centres unmarked) [Compound 50, 4-(2-((3-amino-6-(2-hydroxyphenyl)pyridazin-4-yl)oxy)ethyl)-N-(5-((2-(2,6-dioxopiperidin-3-yl)-1,3-dioxoisoindolin-4-yl)amino)pentyl)benzamide] are “C (“C” indicates maximum degradation <50%)”, greater than 1000 nM, greater than 1000 nM and less than 50%.
The matching figures for `Nc1nnc(-c2ccccc2O)cc1OCCc1ccc(CNCCCCCNc2cccc3c2C(=O)N(C2CCC(=O)NC2=O)C3=O)cc1` (centres unmarked) [Compound 112, 4-[[5-([[4-(2-[[3-amino-6-(2-hydroxyphenyl)pyridazin-4-yl]oxy]ethyl)phenyl]methyl]amino)pentyl]amino]-2-(2,6-dioxopiperidin-3-yl)isoindole-1,3-dione]: “B (“B” indicates maximum degradation ≥50%)”, greater than 10 nM, greater than 1000 nM and greater than 50%.
The matching figures for `Nc1nnc(-c2ccccc2O)cc1OCCc1ccc(CNC(=O)CCCCNc2ccc3c(c2)C(=O)N(C2CCC(=O)NC2=O)C3=O)cc1` (centres unmarked) [Compound 154, N-(4-(2-((3-amino-6-(2-hydroxyphenyl)pyridazin-4-yl)oxy)ethyl)benzyl)-5-((2-(2,6-dioxopiperidin-3-yl)-1,3-dioxoisoindolin-5-yl)amino)pentanamide]: “C (“C” indicates maximum degradation <50%)”, greater than 1000 nM, greater than 1000 nM and less than 50%.
For the compound `Cc1ncsc1-c1ccc([C@H](C)NC(=O)[C@@H]2C[C@@H](O)CN2C(=O)[C@@H](NC(=O)CCCCCCCCCCCCCCNCc2ccc(CCOc3cc(-c4ccccc4O)nnc3N)cc2)C(C)(C)C)cc1` [Compound 261, (2S,4R)-1-((S)-2-(15-((4-(2-((3-amino-6-(2-hydroxyphenyl)pyridazin-4-yl)oxy)ethyl)benzyl)amino)pentadecanamido)-3,3-dimethylbutanoyl)-4-hydroxy-N-((S)-1-(4-(4-methylthiazol-5-yl)phenyl)ethyl)pyrrolidine-2-carboxamide], in assay [1], the “BRM HiBit Degradation Maximum (%)” value is given as “A (“A” indicates maximum degradation ≥75%)” and the DC50 was greater than 10 nM. Besides, in assay [2], the DC50 is greater than 1000 nM and the Dmax is greater than 50%.
In the same order, the values of `Nc1nnc(-c2ccccc2O)cc1OCCc1ccc(C(=O)NCCCCCCC(=O)NCc2ccc(S(=O)(=O)Nc3cccc4c(Cl)c[nH]c34)cc2)cc1` [Compound 13, 7-[[4-(2-[[3-amino-6-(2-hydroxyphenyl)pyridazin-4-yl]oxy]ethyl)phenyl]formamido]-N-([4-[(3-chloro-1H-indol-7-yl)sulfamoyl]phenyl]methyl)heptanamide] are “C (“C” indicates maximum degradation <50%)”, greater than 1000 nM, greater than 1000 nM and less than 50%.
In the same order, the values of `Cc1ncsc1-c1ccc(CNC(=O)[C@@H]2C[C@@H](O)CN2C(=O)[C@@H](NC(=O)CCCCCCCCCCCCCC(=O)NCc2ccc(CCOc3cc(-c4ccccc4O)nnc3N)cc2)C(C)C)cc1` [Compound 169, N1-(4-(2-((3-amino-6-(2-hydroxyphenyl)pyridazin-4-yl)oxy)ethyl)benzyl)-N15-((S)-1-((2S,4R)-4-hydroxy-2-((4-(4-methylthiazol-5-yl)benzyl)carbamoyl)pyrrolidin-1-yl)-3-methyl-1-oxobutan-2-yl)pentadecanediamide] are “B (“B” indicates maximum degradation ≥50%)”, greater than 100 nM, greater than 1000 nM and less than 50%.
In the same order, the values of `Nc1nnc(-c2ccccc2O)cc1OCCc1ccc(CN2CC(N3CCN(c4cccc5c4C(=O)N(C4CCC(=O)NC4=O)C5=O)CC3)C2)cc1` (centres unmarked) [Compound 143, 4-(4-(1-(4-(2-((3-amino-6-(2-hydroxyphenyl)pyridazin-4-yl)oxy)ethyl)benzyl)azetidin-3-yl)piperazin-1-yl)-2-(2,6-dioxopiperidin-3-yl)isoindoline-1,3-dione] are “C (“C” indicates maximum degradation <50%)”, greater than 1000 nM, greater than 1000 nM and less than 50%.
For the compound `Cc1ncsc1-c1ccc(CNC(=O)[C@@H]2C[C@@H](O)CN2C(=O)[C@@H](NC(=O)CN2CCN(CCOc3cc(N4[C@@H]5CC[C@H]4CN(c4cc(-c6ccccc6O)nnc4N)C5)ccn3)CC2)C(C)(C)C)cc1` [Compound 233, (2S,4R)-1-((2S)-2-(2-(4-(2-((4-(3-(3-amino-6-(2-hydroxyphenyl)pyridazin-4-yl)-3,8-diazabicyclo[3.2.1]octan-8-yl)pyridin-2-yl)oxy)ethyl)piperazin-1-yl)acetamido)-3,3-dimethylbutanoyl)-4-hydroxy-N-(4-(4-methylthiazol-5-yl)benzyl)pyrrolidine-2-carboxamide], in assay [1], the “BRM HiBit Degradation Maximum (%)” value is reported as “A (“A” indicates maximum degradation ≥75%)” and the DC50 is greater than 10 nM. In assay [2], the DC50 is greater than 100 nM and the Dmax was greater than 75%.
In the same order, the values of `Cc1ncsc1-c1ccc(CNC(=O)[C@@H]2C[C@@H](O)CN2C(=O)[C@@H](NC(=O)CCCCCCCCCCCCCC(=O)NCc2ccc(CCOc3cc(-c4ccccc4O)nnc3N)cc2)C(C)(C)C)cc1` [Compound 35, N1-(4-(2-((3-amino-6-(2-hydroxyphenyl)pyridazin-4-yl)oxy)ethyl)benzyl)-N15-((S)-1-((2S,4R)-4-hydroxy-2-((4-(4-methylthiazol-5-yl)benzyl)carbamoyl)pyrrolidin-1-yl)-3,3-dimethyl-1-oxobutan-2-yl)pentadecanediamide] are “A (“A” indicates maximum degradation ≥75%)”, greater than 10 nM, greater than 1000 nM and less than 50%.
As to `Cc1ncsc1-c1ccc(CNC(=O)[C@@H]2C[C@@H](O)CN2C(=O)[C@@H](NC(=O)CCCCCCCCC(=O)NCc2ccc(CCN(C)c3cc(-c4ccccc4O)nnc3N)cc2)C(C)(C)C)cc1` [Compound 132, N′-[[4-(2-[[3-amino-6-(2-hydroxyphenyl)pyridazin-4-yl](methyl)amino]ethyl)phenyl]methyl]-N-[(2S)-1-[(2S,4R)-4-hydroxy-2-([[4-(4-methyl-1,3-thiazol-5-yl)phenyl]methyl]carbamoyl)pyrrolidin-1-yl]-3,3-dimethyl-1-oxobutan-2-yl]decanediamide], in assay [1], the “BRM HiBit Degradation Maximum (%)” value was “A (“A” indicates maximum degradation ≥75%)” and the DC50 is greater than 100 nM. Besides, in assay [2], the DC50 was greater than 1000 nM and the Dmax was greater than 50%.
Turning to `Nc1nnc(-c2ccccc2O)cc1OCCc1ccc(CNC(=O)CCCCCCCCCCNc2cccc3c2C(=O)N(C2CCC(=O)NC2=O)C3=O)cc1` (centres unmarked) [Compound 72], in assay [1], the “BRM HiBit Degradation Maximum (%)” value is reported as “C (“C” indicates maximum degradation <50%)” and the DC50 is greater than 1000 nM. In addition, in assay [2], the DC50 is greater than 1000 nM and the Dmax was less than 50%.
